Assay results as given in PMC8162438, “Cancer cell-selective modulation of mitochondrial respiration and metabolism by potent organogold(III) dithiocarbamates” (Chemical Science, 2020).

Experiments:
MDA-MB-231 [1] = experiment: Apoptosis analysis, Annexin V-FITC/PI FACS; format: cell-based; conditions: MDA-MB-231, 10 μM, 4 h, extrapolated from Fig. 10B
Source text: (§1) Apoptosis is a common cell death pathway for chemotherapeutics which can be characterized by distinct morphological features and biochemical mechanisms.[88,89] Apoptosis occurs normally in healthy cells to maintain a healthy population of cells during aging or development of tissues. Some transition metal-based drugs can trigger apoptosis due to […] of p53 dependant pathway (a tumour suppressor gene).[90,91] Populations of apoptotic cells can be determined by containing cells with Annexin V and PI.[92,93] Cells undergoing apoptosis contain ample amount of phosphatidylserine (PS) which can be bound by Annexin V. The Annexin is then labelled with FITC, a green fluorogenic dye which can be visualized by fluorescence activated cell sorting (FACS). PI is used to stain damaged DNA to distinguish apoptotic from necrotic cells. […]
media. […] The plates were read using a Genios plate reader (λ = 570 nm). […]
Cell Viability of 1a-1e and 2a-2e (Suspended Cell Lines). The cell viability of 2a was determined in K562. […]
10% CO 2. […] To each designated well was then added 20 µL of CellTiter-Glo solution and orbitally shaken for 5 minutes and the luminescence (1000 ms integration and 150 ms gain) acquired on a Genios plate reader. […]

MDA-MB-231 [2] = experiment: Immunoblotting of apoptosis proteins; format: cell-based
Source text: as §1, with “(FACS).” for “(FACS). PI is used to stain damaged DNA to distinguish apoptotic from necrotic cells.”
positive control. When ready for analysis, the media were removed and the wells washed with 5 mL of PBS. […] The cells were resuspended in 2 mL of fresh media, counted, and reconstituted to a concentration of 1 x 10^5 cells/mL. […]
Compound 2a was prepared as a stock in DMSO and added to the respective wells at the specified concentrations of 0.1, 1, and 10 µM and treated for 12 h. […] The samples were cooled and stored at −20 °C until ready for use. […] Immuno complexes were detected with the ECL detection reagent (BioRad) and analyzed using a BioRad imager with a chemiluminescence filter. […]

SMILES: C[N+](C)=C1[S][Au-2]2([S]1)[c]1ccccc1Cc1cccc[n+]12.F[P-](F)(F)(F)(F)F (stereo not drawn) [2a]
- Increase in apoptotic cells in comparison to control (MDA-MB-231 [1]): 36%
- Cleaved PARP expression (immunoblot) (MDA-MB-231 [2]; MDA-MB-231, 0.1, 1, 10 µM, 12 h): unaltered protein expression
- Caspase 3 and cleaved caspase 3 expression (immunoblot) (MDA-MB-231 [2]; MDA-MB-231, concentration dependent (0.1, 1, 10 µM, 12 h)): upregulated
